Measured values reported in patent publication US20220056012A1, “AMORPHOUS FORM OF A MALT1 INHIBITOR AND FORMULATIONS THEREOF” (Janssen Pharmaceutica NV, priority 2020, published 2022).

Legend:
Type in all cases: physicochemical
[1] = 2-phase (SGF/FaSSIF) miniaturized dissolution of films; details: SGF-FaSSIF, 37° C., films with 200 μg Compound A
Method: In vitro, 2-phase (SGF/FaSSIF) miniaturized dissolution was performed, where the amount of dissolved compound A was monitored in function of time. Before starting the dissolution assay, the films were stored for one day at room temperature. By doing so, most of the residual solvent had evaporated. Actual dissolution experiments were performed in 96 1 mL glass vials using the Hamilton STAR plus liquid handling platform for both sampling and sample preparation. Before adding the dissolution media to the films, an equilibration time of approximately 60 minutes was needed to preheat the media to 37° C. After equilibration, 300 μL of preheated SGF (37° C., pH 1.3) was added to the amorphous solid dispersions. After 15 minutes of incubation in SGF, 600 μL of preheated concentrated FaSSIF (37° C., pH 10.5) was added to the samples. […] At predetermined time intervals, aliquots were withdrawn from the dissolution media and filtered through a 0.45 μm GHP membrane filter. Subsequently, the filtered solutions were quantitatively diluted (10×) with N-methylpyrrolidone (NMP) to prevent possible precipitation. The amount of dissolved compound A was determined by UPLC. Films were incubated at 37° C. throughout the entire assay. Experiments were performed in duplicate.

[2] = Stability of amorphous formulations by XRD at normal and accelerated conditions
Method: Stability of the prepared formulations of Compound A was measured by XRD at normal and accelerated conditions, showing that all the prepared formulations of the compound, be it alone or combined with a polymer, are amorphous.

[3] = Crystalline conversion of isolated amorphous Compound A on storage
[4] = Glass transition temperature (Tg) by DSC, Tg vs % RH; details: amorphous Compound A without polymer
Method: The Tg vs RH results for HPMCAS-LG amorphous SDDs (FIG. 18 and Table 10) show the Tg's range from 111 to 119° C. under dry conditions and are depressed down to 52 to 59° C. at 75% RH. Both dry and wet Tg increase with increased drug loading.

[5] = Hygroscopicity of crystalline form
[6] = Dissolution in 900 mL FaSSIF medium at pH 6.5 (FIG. 20); details: pH 6.5, capsules in blend
Method: FIG. 20: Dissolution rates of different compositions in 900 mL FaSSIF medium at pH 6.5. The different compositions are: 25 mg ASD capsule HPMC AS MG 1/3 in blend; 50 mg ASD capsule HPMC AS MG 1/1 in blend; 50 mg ASD capsule EL100-55 1/1 in blend; 50 mg LFHG PEG1500 (liquid filled) capsule; 100 mg capsule amorphous API in blend; 25 mg ASD capsule EL100-55 1/3 in blend; and 100 mg capsule crystalline API in blend.

For `O=C(Nc1ccnc(C(F)(F)F)c1)c1cnn(-c2cccc3c(=O)[nH]ccc23)c1C(F)(F)F` [amorphous form of Compound A, 1-(1-oxo-1,2-dihydroisoquinolin-5-yl)-5-(trifluoromethyl)-N-[2-(trifluoromethyl)pyridin-4-yl]-1H-pyrazole-4-carboxamide], the “initial release, concentration” value [1] was 60 to 80 µg/mL, the XRD result ([2]; 40° C. closed 1M) was “amorph” and the XRD result ([2]; 40° C. closed 2M) was “amorph”. The XRD result ([2]; 40° C. closed 6M) was “amorph”, the XRD result ([2]; 40° C./75% RH open 6M) was “amorph” and the XRD result ([2]; 40° C/75% RH open 1M) was “amorph”. For the same compound, the XRD result ([2]; 40° C/75% RH open 2M) was “amorph”, the XRD result ([2]; 50° C. closed 1M) was “amorph” and the XRD result ([2]; 50° C. closed 2M) was “amorph”. For the same compound, the XRD result ([2]; 50° C. closed 6M) was “amorph”, the XRD result ([2]; RT closed 1M) was “amorph” and the XRD result ([2]; RT closed 2M) was “amorph”. For the same compound, the XRD result ([2]; RT closed 6M) was “amorph”, the XRD result ([2]; RT/56% RH open 1M) was “amorph” and the XRD result ([2]; RT/56% RH open 2M) was “amorph”. The XRD result ([2]; RT/56% RH open 6M) was “amorph”, the XRD result ([2]; T0) was “amorph” and the “solid state after storage (stability DSC data)” value ([3]; 6 MOS at 40°/75% RH, open-dish) was “still amorphous”. The “crystalline conversion after exposure” value ([3]; 10% RH, 50° C., 28 days) was “no crystalline conversion”, the “crystalline conversion after exposure” value ([3]; 75% RH, 40° C., open condition, 6 months) was “no crystalline conversion” and the “crystalline conversion after exposure” value ([3]; 75% RH, 50° C., 28 days) was “no crystalline conversion”. For the same compound, the “crystalline conversion after exposure” value ([3]; 75% RH, 50° C., closed condition, 6 months) was “no crystalline conversion”, the glass transition temperature [4] was 133 °C and the glass transition temperature ([4]; listed as spray dried Compound A) was 132 °C.
With `O=C(Nc1ccnc(C(F)(F)F)c1)c1cnn(-c2cccc3c(=O)[nH]ccc23)c1C(F)(F)F` [Form I, 1-(1-oxo-1,2-dihydroisoquinolin-5-yl)-5-(trifluoromethyl)-N-[2-(trifluoromethyl)pyridin-4-yl]-1H-pyrazole-4-carboxamide] the hygroscopicity [5] was “hygroscopic behavior” and the dissolution rate [6] was “dropped considerably”.
